Test results: patent US20090113563A1, “Probe for detecting nuclear receptor agonist or antagonist and method for screening agonist or antagonist to nuclear receptor with the use of the same” (priority 2004, published 2009)
No end group written: not given here.

What was measured:
[1] = biological target: T1, human androgen receptor LBD (Homo sapiens, UniProt P10275); assay: FRET probe for androgen receptor agonist/antagonist in living PK-15 cells; assay type: cell-based
T1 construct: expressed in transfected cells; host or cells: PK-15 (pig kidney), pcDNA3.1(+)
T1 sequence (P10275 674-912): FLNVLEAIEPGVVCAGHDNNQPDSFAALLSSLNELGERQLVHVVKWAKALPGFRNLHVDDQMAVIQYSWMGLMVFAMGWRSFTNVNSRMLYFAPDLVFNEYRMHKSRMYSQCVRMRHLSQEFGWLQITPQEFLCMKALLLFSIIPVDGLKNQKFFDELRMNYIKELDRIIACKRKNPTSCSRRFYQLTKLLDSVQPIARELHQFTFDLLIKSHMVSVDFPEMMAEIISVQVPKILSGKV
Description: According to nearly the same procedure as in the cases of the above (A) and (B), a plasmid was constructed.
(§1) Each cell was cultured in Ham's F-12 medium supplemented with 10% fetal calf serum (FCS)b and Dulbecco's modified eagle medium supplemented with 10% FCS, 1.0 mM sodium pyruvate and 0.1 mM nonessential amino acids respectively at 37° C. in a humidified atmosphere 5% CO2. Cells were transfected with an expression vector pcDNA3.1(+) containing a probe in the presence of lipofectAMINE 2000 reagent in glass bottom dishes.
(§2) The cells were Chinese hamster ovary (CHO-K1) cells for a probe for detecting an agonist or an antagonist to an estrogen receptor or a peroxisome growth factor-activating receptor, and pig kidney (PK-15) cells for a probe for detecting an agonist or an antagonist to an androgen receptor.
(§3) Before imageing, the culture medium was replaced with Hanks' balanced salt solution.
(§4) The exposure time at 440±10 nm excitation was 100 ms.

[2] = biological target: T2, human estrogen receptor αLBD (Homo sapiens, UniProt P03372); assay: FRET probe (CFP-SRC-1 LXXLL-linker-ER αLBD-YFP) for estrogen receptor agonist/antagonist in living CHO-K1 cells; assay type: cell-based
T2 construct: expressed in transfected cells; host or cells: CHO-K1 (Chinese hamster ovary), pcDNA3.1(+)
T2 sequence (P03372 with tags, fused parts or gaps L306P/I326L/L327I/T334S/V368G/T371N/T483N/Q502R/S527N): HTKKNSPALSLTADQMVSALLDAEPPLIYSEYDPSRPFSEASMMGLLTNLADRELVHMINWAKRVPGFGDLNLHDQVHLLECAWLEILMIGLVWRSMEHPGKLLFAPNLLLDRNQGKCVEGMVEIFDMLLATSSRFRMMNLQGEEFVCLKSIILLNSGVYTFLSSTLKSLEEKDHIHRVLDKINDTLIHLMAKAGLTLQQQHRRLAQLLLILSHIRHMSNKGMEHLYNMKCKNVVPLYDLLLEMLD
Description: as §1, §2, §3, §4
The ED50 values were converted to relative recruitment ability (RRA; Non-Patent Document 34) to compare the relative abilities of the tested compounds to promote the recruitment of the binding-responsive site to the ligand-recognition site. The RRA were calculated using the following equation.

PPAR γ-LBD = biological target: T3, PPAR γ-LBD (Homo sapiens, UniProt P37231); assay: FRET probe for peroxisome proliferator-activated receptor agonist/antagonist in living CHO-K1 cells; assay type: cell-based; conditions: 10 μM
T3 construct: expressed in transfected cells; host or cells: CHO-K1, pcDNA3.1(+)
T3 sequence (P37231 235-505): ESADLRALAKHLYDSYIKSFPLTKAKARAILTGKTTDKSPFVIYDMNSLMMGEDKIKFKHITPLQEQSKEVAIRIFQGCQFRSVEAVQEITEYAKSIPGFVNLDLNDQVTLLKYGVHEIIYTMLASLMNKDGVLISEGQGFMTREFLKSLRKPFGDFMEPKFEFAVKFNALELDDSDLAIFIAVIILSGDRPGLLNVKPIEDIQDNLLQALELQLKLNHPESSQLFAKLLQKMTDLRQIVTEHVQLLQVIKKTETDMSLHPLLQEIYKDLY
Description: According to nearly the same procedure as in the case of the above (A), a plasmid was constructed.
as §1, §2, §3, §4

[3] = biological target: T4, human estrogen receptor α ligand-binding domain (305-550aa) (human, UniProt P03372 305-550); assay: cell-based or functional assay
T4 sequence (looked up): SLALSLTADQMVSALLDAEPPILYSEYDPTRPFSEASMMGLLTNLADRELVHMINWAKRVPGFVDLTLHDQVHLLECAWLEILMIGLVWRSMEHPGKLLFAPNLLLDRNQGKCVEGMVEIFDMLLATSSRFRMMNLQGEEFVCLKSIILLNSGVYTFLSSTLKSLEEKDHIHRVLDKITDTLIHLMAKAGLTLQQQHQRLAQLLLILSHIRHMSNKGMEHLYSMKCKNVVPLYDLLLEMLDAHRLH

[4] = biological target: T5, peroxisome growth factor-activating receptor γ ligand-binding domain (235-505aa) (Homo sapiens (Human), UniProt P37231 235-505); assay: intramolecular CFP/YFP FRET of the probe in CHO-K1 cells, 10 µM 15d-PGJ2
T5 construct: also called PPAR γ-LBD
T5 sequence: T3 sequence (P37231 235-505)
Description: CHO-K1 cells expressing the probe (FIG. 2B) were stimulated by 10 μM 15d-PGJ₂ and the event was observed by following time course fo the changes in FRET.

[5] = biological target: T4, human estrogen receptor α …; assay: intramolecular CFP/YFP FRET in living cells, 100 nM E2
[6] = biological target: T6, human androgen receptor ligand-binding domain (672-910aa) (human, UniProt O97775 665-903 (Pan troglodytes entry)); assay: intramolecular CFP/YFP FRET in living cells, 100 nM DHT
T6 construct: also called AR-LBD; ligand-recognition site
T6 sequence: T1 sequence (P10275 674-912)

Molecule: C[C@]12CCC(=O)C=C1CC[C@@H]1[C@@H]2[C@@H](O)C[C@@]2(C)[C@H]1CC[C@]2(O)C(=O)CO [cortisol]
- FRET response over tested concentration range ([1]; PK-15 cells, 1.0×10^−4 to 1.0×10^−11 M, FIG. 5B): did not show the response at any tested concentration

Molecule: 4-hydroxytamoxifen [OHT]
- change in FRET response [2]: no increase in the FRET

Molecule: nonylphenol [NP]
- relative recruitment ability (RRA) ([2]; RRA=(conc. E2 [50% response]/conc. EDC [50% response])×100, E2 set at 100): 3.0
- EC50 ([2]; read-out: EC50 (concentration inducing 50% response of LXXLL motif recruitment to ER αLBD), CHO-K1 cells expressing the probe, from response curves of FIG. 5A, tested 1.0×10^−4 to 1.0×10^−11 M): 0.26 µM

Molecule: CC(C)(c1ccc(OCC2CO2)cc1)c1ccc(OCC2CO2)cc1 (stereo not drawn) [BADGE, bisphenol A diglycidyl ether]
- change in emission ratio (FRET response) (PPAR γ-LBD; FIG. 7): no significant change in the emission ratio

Molecule: CCCCC/C=C/C=C1/C(=O)C=C[C@@H]1C/C=C\CCCC(=O)O [15d-PGJ2, 15-deoxy-Δ^12,14-prostaglandin J2]
- change in CFP/YFP emission ratio (480/535 nm) (PPAR γ-LBD; FIG. 4B-a): decrease in CFP/YFP emission ratio (480/535 nm) (increase in FRET)
- time for emission ratio decrease to reach plateau (PPAR γ-LBD; FIG. 4B-a): ≤ 1000 s

Molecule: CC12CC1(C)C(=O)N(c1cc(Cl)cc(Cl)c1)C2=O (stereo not drawn) [procymidone]
- change in FRET response, antagonist alone ([1]; 100 nM alone, PK-15, FIG. 8): no significant increase in the FRET
- FRET response with DHT plus antagonist ([1]; DHT 1.0, 10, 100 nM + 10 μM antagonist, PK-15, FIG. 8): the FRET level increased in a dose dependent manner of DHT

B1: steroid receptor coactivator 1 NR box II (687-697aa) coactivator peptide (peptide)
peptide: HKILHRLLQEG
modifications: also: segment of CFP–NR box–GGNGG-type linker–LBD–YFP fusion probe
notes: Not tested as a free peptide; also called SRC-1 NR box II
- EC50 of the small-molecule ligand DES for the FRET response of the probe (CHO-K1 cells) [3]: 0.013 µM
- EC50 of the small-molecule ligand E2 for the FRET response of the probe (CHO-K1 cells) [3]: 0.008 µM
- EC50 of the small-molecule ligand NP for the FRET response of the probe (CHO-K1 cells) [3]: 0.26 µM
- binding result [4]: binds

Molecule: HKIAHRAAQEG (also called mutant LXXLL motif)
- binding result [5]: no binding
- binding result [6]: no binding
